Assay results taken from US10793557B2, “Sting agonist compounds” (Merck Sharp & Dohme Corp., priority 2018, dated 2020).

What was measured:
[1] = biological target: T1, full-length HAQ STING (Homo sapiens, UniProt Q86WV6, G230A/H232R/R293Q/R71H); assay: 3H-cGAMP filtration binding assay (HAQ STING); settings: competition with tritiated cGAMP, HAQ STING membrane
T1 construct: AviTag (after GG linker) (C); HRV3C cleavage site (after GS linker) (C); HIS8 (C); made in house; host or cells: Trichoplusia ni (Hi-Five) insect cells infected with baculovirus (virus generated and amplified in Sf21 cells); used as a washed membrane preparation
T1 sequence (Q86WV6 with tags, fused parts or gaps R71H/G230A/H232R/R293Q): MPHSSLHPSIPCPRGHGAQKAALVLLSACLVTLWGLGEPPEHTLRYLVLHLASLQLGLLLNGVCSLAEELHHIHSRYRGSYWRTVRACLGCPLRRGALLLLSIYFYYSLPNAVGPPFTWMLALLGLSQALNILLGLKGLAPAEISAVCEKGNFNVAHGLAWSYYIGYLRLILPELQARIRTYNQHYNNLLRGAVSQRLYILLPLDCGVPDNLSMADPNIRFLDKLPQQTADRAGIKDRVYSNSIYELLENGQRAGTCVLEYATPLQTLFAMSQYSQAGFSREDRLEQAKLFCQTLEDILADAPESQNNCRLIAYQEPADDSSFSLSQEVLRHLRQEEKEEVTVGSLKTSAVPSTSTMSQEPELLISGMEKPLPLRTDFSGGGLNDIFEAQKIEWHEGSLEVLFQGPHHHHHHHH
Procedure, shortened: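 Hi-Five (T. ni) membranes overexpressing the STING variant (2.2 ug/ml working) preincubated with compound 60 min at RT in PBS, then [3H]cGAMP (8 nM working stock) added for 60 min at RT. Bound radioactivity captured on GF/B filters and counted by scintillation; EC50 from 4-parameter fit of control-normalized activity.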

[2] = biological target: T2, full-length WT STING (Homo sapiens, UniProt Q86WV6, H232R); assay: 3H-cGAMP filtration binding assay (WT STING); settings: for EC50: competition with tritiated cGAMP, WT STING membrane; for inhibition at 20 µM: at 20,000 nM compound
T2 construct: AviTag (after gg linker) (C); HRV3C cleavage site (after gs linker) (C); HIS8 (C); made in house; host or cells: Trichoplusia ni (Hi-Five) insect cells infected with baculovirus (virus generated and amplified in Sf21 cells); used as a washed membrane preparation
T2 sequence (Q86WV6 with tags, fused parts or gaps H232R): as the sequence (Q86WV6 with tags, fused parts or gaps R71H/G230A/H232R/R293Q) above, with H71R, A230G, Q293R counted along it
Procedure, shortened: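 EC50 values come from 4-parameter fits of remaining filter-bound tritium versus log concentration (10-point, 1:3 dilution). Insect-cell membranes carrying full-length WT STING were incubated 60 min at RT with compound and tritiated cGAMP (16 nM working stock) before filtration.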

[3] = test system: secretion of interferon-beta from THP1 cells; assay: IFN-β secretion in THP1 cell culture (5 h); format: cell-based; settings: Homo sapiens, THP-1, 5 h, 30 uM cGAMP = 100%; for activation at 30 µM: compound at 30 μM, read-out: % Effect at 30 μM relative to 2′3′-cGAMP; for activation at 3 µM: compound at 3 uM, read-out: % Effect relative to 2′3′-cGAMP (@ 3 uM)
Procedure, shortened: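 IFN-β in supernatant measured by AlphaLISA after a 5 h, 37 °C incubation of THP1 cells with compound (10 concentrations, 30000 down to 1.5 nM, 0.3% DMSO) in low-serum RPMI. Values scaled between DMSO and 30 uM cGAMP controls; 4-parameter curve fit yields EC50.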

EC50 [1] [nM]	EC50 [2] [nM]	inhibition at 20 µM [2] [%]	Compound	activation at 30 µM [3] [%]	activation at 3 µM [3] [%]
10	39		COc1cc2sc(C(=O)C[C@H](C)C(=O)O)cc2cc1CCCOc1c(OC)cc2sc(C(=O)C[C@@H](C)C(=O)O)cc2c1F [Example 109, (S)-4-(5-(3-((2-((R)-3-carboxybutanoyl)-4-fluoro-6-methoxybenzo[b]thiophen-5-yl)oxy)propyl)-6-methoxybenzo[b]thiophen-2-yl)-2-methyl-4-oxobutanoic acid]	96	
18600		15	COc1cc2sc(C(=O)C[C@H](C)C(=O)O)cc2cc1OCCCCCCOc1cc2cc(C(=O)C[C@H](C)C(=O)O)sc2cc1OC [Example 110, (2S,2′S)-4,4′-(5,5′-(hexane-1,6-diylbis(oxy))bis(6-methoxybenzo[b]thiophene-5,2-diyl))bis(2-methyl-4-oxobutanoic acid)]	6	
861		50	COc1cc2sc(C(=O)C[C@H](C)C(=O)O)cc2cc1OCCCCCCOc1c(OC)cc2sc(C(=O)C[C@H](C)C(=O)O)cc2c1F [Example 111, (S)-4-(5-((6-((2-((S)-3-carboxybutanoyl)-4-fluoro-6-methoxybenzo[b]thiophen-5-yl)oxy)hexyl)oxy)-6-methoxybenzo[b]thiophen-2-yl)-2-methyl-4-oxobutanoic acid]		45
15500		11	COc1cc2cc(C(=O)C[C@H](C)C(=O)O)sc2cc1OCCCCCCOc1cc2sc(C(=O)C[C@H](C)C(=O)O)cc2cc1OC [Example 112, (2S,2′S)-4,4′-(6,6′-(hexane-1,6-diylbis(oxy))bis(5-methoxybenzo[b]thiophene-6,2-diyl))bis(2-methyl-4-oxobutanoic acid)]	23	
2	23		COc1cc2sc(C(=O)C[C@H](C)C(=O)O)cc2cc1CCCOc1c(OC)cc2sc(C(=O)[C@@H]3CCC3C(=O)O)cc2c1F (stereo partly drawn) [Example 113, trans-2-(5-(3-(2-((S)-3-carboxybutanoyl)-6-methoxybenzo[b]thiophen-5-yl)propoxy)-4-fluoro-6-methoxybenzo[b]thiophene-2-carbonyl)cyclobutane carboxylic acid]	93	
21	264		COc1cc2sc(C(=O)C[C@H](C)C(=O)O)cc2c(F)c1CCCOc1c(OC)cc2sc(CCC(C)(C)C(=O)O)cc2c1F [Example 114, (S)-4-(5-(3-((2-(3-carboxy-3-methylbutyl)-4-fluoro-6-methoxybenzo[b]thiophen-5-yl)oxy)propyl)-4-fluoro-6-methoxybenzo[b]thiophen-2-yl)-2-methyl-4-oxobutanoic acid]	57	
623	4240		COc1cc2sc(CC[C@H](C)C(=O)O)cc2c(F)c1OCCCOc1c(OC)cc2sc(CC[C@H](C)C(=O)O)cc2c1F [Example 116, (2S,2′S)-4,4′-(5,5′-(propane-1,3-diylbis(oxy))bis(4-fluoro-6-methoxybenzo[b]thiophene-5,2-diyl))bis(2-methylbutanoic acid)]	8	
340	2640		COc1cc2sc(C(=O)CCC(=O)O)cc2c(F)c1OCCCCCOc1c(OC)cc2sc(C(=O)CCC(=O)O)cc2c1F [Example 117, 4,4′-(5,5′-(pentane-1,5-diylbis(oxy))bis(4-fluoro-6-methoxybenzo[b]thiophene-5,2-diyl))bis(4-oxobutanoic acid)]	123	
60	5000		COc1cc2sc(C(=O)CCC(=O)O)cc2c(F)c1OCCCCCOc1c(OC)cc2sc(C(=O)C[C@H](C)C(=O)O)cc2c1F [Example 118]	117	
38	698		COc1cc2sc(C(=O)C[C@H](C)C(=O)O)cc2c(F)c1OCCCCCOc1c(OC)cc2sc(C(=O)C[C@H](C)C(=O)O)cc2c1F [Example 120, (2S,2′S)-4,4′-(5,5′-(pentane-1,5-diylbis(oxy))bis(4-fluoro-6-methoxybenzo[b]thiophene-5,2-diyl))bis(2-methyl-4-oxobutanoic acid)]		45
1550		43	COc1cc2sc(C(=O)C[C@H](C)C(=O)O)cc2c(F)c1OCCCCCOc1c(OC)cc2sc(C(=O)[C@@H]3CC[C@H]3C(=O)O)cc2c1F [Example 121, trans-2-(5-((5-((2-((S)-3-carboxybutanoyl)-4-fluoro-6-methoxybenzo[b]thiophen-5-yl)oxy)pentyl)oxy)-4-fluoro-6-methoxybenzo[b]thiophene-2-carbonyl)cyclobutane carboxylic acid]	26	
1	1		COc1cc2sc(C(=O)C[C@H](C)C(=O)O)cc2c(F)c1OCCCOc1c(OC)cc2sc(C(=O)C[C@H](C)C(=O)O)cc2c1Cl [Example 122, (S)-4-(5-(3-((2-((S)-3-carboxybutanoyl)-4-chloro-6-methoxybenzo[b]thiophen-5-yl)oxy)propoxy)-4-fluoro-6-methoxybenzo[b]thiophen-2-yl)-2-methyl-4-oxobutanoic acid]	79	
1	2		COc1cc2sc(C(=O)C[C@H](C)C(=O)O)cc2c(F)c1OCCCOc1c(OC)cc2sc(C(=O)C[C@H](C)C(=O)O)cc2c1Br [Example 123, (S)-4-(5-(3-((4-bromo-2-((S)-3-carboxybutanoyl)-6-methoxybenzo[b]thiophen-5-yl)oxy)propoxy)-4-fluoro-6-methoxybenzo[b]thiophen-2-yl)-2-methyl-4-oxobutanoic acid]	105	
1	5		COc1cc2cc(C(=O)CCC(=O)O)sc2cc1OCCCOc1c(OC)cc2sc(C(=O)CCC(=O)O)cc2c1F [Example 125, 4-(6-(3-((2-(3-carboxypropanoyl)-4-fluoro-6-methoxybenzo[b]thiophen-5-yl)oxy)propoxy)-5-methoxybenzo[b]thiophen-2-yl)-4-oxobutanoic acid]	156	
2	19		COc1cc2sc(C(=O)CCC(=O)O)cc2cc1OCCCOc1cc2sc(C(=O)CCC(=O)O)cc2cc1OC [Example 126, 4-(5-(3-((2-(3-carboxypropanoyl)-5-methoxybenzo[b]thiophen-6-yl)oxy)propoxy)-6-methoxybenzo[b]thiophen-2-yl)-4-oxobutanoic acid]	91	
16	270		COc1cc2cc(C(=O)CCC(=O)O)sc2cc1OCCCOc1cc2sc(C(=O)CCC(=O)O)cc2cc1OC [Example 127, 4,4′-(6,6′-(propane-1,3-diylbis(oxy))bis(5-methoxybenzo[b]thiophene-6,2-diyl))bis(4-oxobutanoic acid)]	120	
1080	6310		COc1cc2sc(C(=O)CCC(=O)O)cc2cc1CCCOc1cc2sc(C(=O)CCC(=O)O)cc2cc1OC [Example 128, 4-(5-(3-((2-(3-carboxypropanoyl)-5-methoxybenzo[b]thiophen-6-yl)oxy)propyl)-6-methoxybenzo[b]thiophen-2-yl)-4-oxobutanoic acid]	83	
3500	17100		COc1cc2cc(C(=O)CCC(=O)O)sc2cc1OCCCc1cc2cc(C(=O)CCC(=O)O)sc2cc1C [Example 129, 4-(5-(3-((2-(3-carboxypropanoyl)-5-methoxybenzo[b]thiophen-6-yl)oxy)propyl)-6-methylbenzo[b]thiophen-2-yl)-4-oxobutanoic acid]	50	

Compound	EC50 [1] [nM]	EC50 [2] [nM]	inhibition at 20 µM [2] [%]	activation at 30 µM [3] [%]	activation at 3 µM [3] [%]
COc1cc2sc(CC[C@H](C)C(=O)O)cc2c(F)c1OCCCCOc1c(OC)cc2sc(C(=O)C[C@H](C)C(=O)O)cc2c1F [Example 124, (S)-4-(5-(4-((2-((S)-3-carboxybutyl)-4-fluoro-6-methoxybenzo[b]thiophen-5-yl)oxy)butoxy)-4-fluoro-6-methoxybenzo[b]thiophen-2-yl)-2-methyl-4-oxobutanoic acid]	263	3060			45
COc1cc2sc(C(=O)C[C@H](C)C(=O)O)cc2c(F)c1OCCCCOc1c(OC)cc2sc(C(=O)C[C@H](C)C(=O)O)cc2c1Cl [Example 130, (S)-4-(5-(4-((2-((S)-3-carboxybutanoyl)-4-chloro-6-methoxybenzo[b]thiophen-5-yl)oxy)butoxy)-4-fluoro-6-methoxybenzo[b]thiophen-2-yl)-2-methyl-4-oxobutanoic acid]	3	25		61	
